This note sets out measurements from PubChem BioAssay (NCI).

Molecules are shown by their SMILES.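 Step 1: Grow cells in 96-well plates. Step 2: Expose to compound for 48 hours at 5 concentrations. Step 3: Interpolate endpoints linearly; if unreached, use highest concentration. GI50: concentration for 50% inhibition of growth. TGI: concentration producing complete growth inhibition.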 Bounds are passed on as bounds.

One experiment relates to SNB-75 CNS. Description: NCI tumour cell line growth inhibition, 48 h.
For the compound `COc1ccc(/C=C2\CCCC3=C2N=C2SC(C)=NN2C3c2ccc(OC)c(OC)c2)cc1OC` (centres undefined), the GI50 was 13.7 µM and the TGI came out at 64.2 µM.
Take `COc1ccc(-c2nn3c(-c4cc(F)c(Cl)cc4Cl)nnc3s2)cc1`: the GI50 is 17.2 µM and the TGI was 51.5 µM.
As for `O=C(NCCO)Nc1ccc(-c2nc(N3CCOCC3)c3cccn3n2)cc1`, the GI50 is 0.0445 µM and the TGI was 1.08 µM.
On to `O=C(/C=C/c1ccccc1)c1cc(Br)ccc1O`, for which the TGI was 28.9 µM.
On to `Cc1ccc(-c2cn3ccnc3c(-c3ccc(Cl)cc3)n2)cc1`, for which the GI50 is 0.465 µM and the TGI is 24.5 µM.
In turn, `CC1(C)C(=NNC(=O)C[N+](C)(C)C)C(C)(C)C1=NNC(=O)C[N+](C)(C)C` registered a TGI of over 100 µM.
`CC(C)c1cc(-c2n[nH]c(=O)n2-c2ccc3c(ccn3C)c2)c(O)cc1O`: the GI50 was 1.58 µM and the TGI was 97.7 µM.
`COc1ccc2nc(-c3cccs3)cc(C(O)CN3CCSCC3)c2c1` (centres undefined) registered a TGI of 78.7 µM.
Still for that read-out and setting: then `N#C/C(=C\c1ccc(O)c(O)c1)C(N)=S`, with over 100 µM.
For `COc1ccc2c(c1)/C(=C\c1c(C)nc3sccn13)C(=O)N2`, the GI50 is 0.372 µM and the TGI was over 100 µM.
For the compound `CC(=O)OCC1OC(OC2C(CSC3OC(COC(C)=O)C(OC(C)=O)C(OC(C)=O)C3OC(C)=O)OC(OC(C)=O)C(OC(C)=O)C2OC(C)=O)C(OC(C)=O)C(OC(C)=O)C1OC(C)=O` (centres undefined), the TGI is over 100 µM.
Regarding `OC(c1cc(-c2ccccc2)nc2ccc(Cl)cc12)C1CCCCN1` (centres undefined), the GI50 was 1.83 µM and the TGI is 5.74 µM.

The subject of another experiment is HOP-92 NSCLC. Briefly: NCI tumour cell line growth inhibition, 48 h.
As to `CCCC(C)c1cc(Cc2cc(Cl)cc(Cl)c2O)c(O)c(Cc2cc(Cl)cc(Cl)c2O)c1` (centres undefined), the GI50 was 0.128 µM and the TGI amounted to 0.496 µM.
For the compound `COc1ccc(/C=C2\CCCC3=C2N=C2SC(C)=NN2C3c2ccc(OC)c(OC)c2)cc1OC` (centres undefined), the GI50 is 10.6 µM and the TGI is 52 µM.
For `COc1ccc(-c2nn3c(-c4cc(F)c(Cl)cc4Cl)nnc3s2)cc1`, the GI50 was 24.2 µM and the TGI came out at 77.9 µM.
For `O=C(NCCO)Nc1ccc(-c2nc(N3CCOCC3)c3cccn3n2)cc1` the same measures were 0.0466 µM and 1.09 µM.
Consider `O=C(/C=C/c1ccccc1)c1cc(Br)ccc1O`, for which the TGI came to 18.3 µM.
As to `Cc1ccc(-c2cn3ccnc3c(-c3ccc(Cl)cc3)n2)cc1`, the GI50 is 12.5 µM and the TGI was over 93.2 µM.
Consider `CC1(C)C(=NNC(=O)C[N+](C)(C)C)C(C)(C)C1=NNC(=O)C[N+](C)(C)C`, for which the TGI is over 100 µM.
For the compound `CC(C)c1cc(-c2n[nH]c(=O)n2-c2ccc3c(ccn3C)c2)c(O)cc1O`, the GI50 was under 0.0169 µM and the TGI was found to be 0.0484 µM.
For `COc1ccc2nc(-c3cccs3)cc(C(O)CN3CCSCC3)c2c1` (centres undefined), the TGI is 62.1 µM.
Compound `N#C/C(=C\c1ccc(O)c(O)c1)C(N)=S` yielded a TGI of over 100 µM.
As for `COc1ccc2c(c1)/C(=C\c1c(C)nc3sccn13)C(=O)N2`, the GI50 was 0.83 µM and the TGI was over 100 µM.
The compound `CC(=O)OCC1OC(OC2C(CSC3OC(COC(C)=O)C(OC(C)=O)C(OC(C)=O)C3OC(C)=O)OC(OC(C)=O)C(OC(C)=O)C2OC(C)=O)C(OC(C)=O)C(OC(C)=O)C1OC(C)=O` (centres undefined) gave a TGI of over 100 µM.
In the case of `OC(c1cc(-c2ccccc2)nc2ccc(Cl)cc12)C1CCCCN1` (centres undefined), the GI50 is 2.02 µM and the TGI was determined as 6.87 µM.

The next experiment concerns K-562 leukemia. Briefly: NCI tumour cell line growth inhibition, 48 h.
Regarding `CCCC(C)c1cc(Cc2cc(Cl)cc(Cl)c2O)c(O)c(Cc2cc(Cl)cc(Cl)c2O)c1` (centres undefined), the GI50 was 0.34 µM and the TGI was determined as 11.7 µM.
The like results for `COc1ccc(/C=C2\CCCC3=C2N=C2SC(C)=NN2C3c2ccc(OC)c(OC)c2)cc1OC` (centres undefined) were, in that order, 3.98 µM and over 100 µM.
The like results for `COc1ccc(-c2nn3c(-c4cc(F)c(Cl)cc4Cl)nnc3s2)cc1` were, in that order, 5.13 µM and 44.7 µM.
Consider `O=C(NCCO)Nc1ccc(-c2nc(N3CCOCC3)c3cccn3n2)cc1`, for which the GI50 is 2.8 µM and the TGI is over 100 µM.
With `O=C(/C=C/c1ccccc1)c1cc(Br)ccc1O`, the TGI was 43.1 µM.
Regarding `Cc1ccc(-c2cn3ccnc3c(-c3ccc(Cl)cc3)n2)cc1`, the GI50 was 0.0352 µM and the TGI was over 100 µM.
`CC1(C)C(=NNC(=O)C[N+](C)(C)C)C(C)(C)C1=NNC(=O)C[N+](C)(C)C` showed a TGI of over 100 µM.
For the compound `CC(C)c1cc(-c2n[nH]c(=O)n2-c2ccc3c(ccn3C)c2)c(O)cc1O`, the GI50 was under 0.0123 µM and the TGI was over 100 µM.
`COc1ccc2nc(-c3cccs3)cc(C(O)CN3CCSCC3)c2c1` (centres undefined) returned a TGI of 51.5 µM.
`N#C/C(=C\c1ccc(O)c(O)c1)C(N)=S` registered a TGI of over 100 µM.
With `COc1ccc2c(c1)/C(=C\c1c(C)nc3sccn13)C(=O)N2`, the GI50 is 0.0956 µM and the TGI was over 100 µM.
Turning to `CC(=O)OCC1OC(OC2C(CSC3OC(COC(C)=O)C(OC(C)=O)C(OC(C)=O)C3OC(C)=O)OC(OC(C)=O)C(OC(C)=O)C2OC(C)=O)C(OC(C)=O)C(OC(C)=O)C1OC(C)=O` (centres undefined), the TGI was over 100 µM.
On to `OC(c1cc(-c2ccccc2)nc2ccc(Cl)cc12)C1CCCCN1` (centres undefined), for which the GI50 is 2.54 µM and the TGI was determined as 7.01 µM.

The test system of a further experiment is UACC-257 melanoma. Briefly: NCI tumour cell line growth inhibition, 48 h.
In the case of `CCCC(C)c1cc(Cc2cc(Cl)cc(Cl)c2O)c(O)c(Cc2cc(Cl)cc(Cl)c2O)c1` (centres undefined), the GI50 is 1.84 µM and the TGI was determined as 6.1 µM.
On to `COc1ccc(/C=C2\CCCC3=C2N=C2SC(C)=NN2C3c2ccc(OC)c(OC)c2)cc1OC` (centres undefined), for which the GI50 was 9.17 µM and the TGI is over 100 µM.
With `COc1ccc(-c2nn3c(-c4cc(F)c(Cl)cc4Cl)nnc3s2)cc1`, the GI50 was 32.2 µM and the TGI was over 100 µM.
With `O=C(NCCO)Nc1ccc(-c2nc(N3CCOCC3)c3cccn3n2)cc1`, the GI50 was 0.149 µM and the TGI was determined as 4.29 µM.
On to `O=C(/C=C/c1ccccc1)c1cc(Br)ccc1O`, for which the TGI was found to be 27.9 µM.
For `Cc1ccc(-c2cn3ccnc3c(-c3ccc(Cl)cc3)n2)cc1`, the TGI was over 100 µM.
`CC1(C)C(=NNC(=O)C[N+](C)(C)C)C(C)(C)C1=NNC(=O)C[N+](C)(C)C` had a TGI of over 100 µM.
Take `CC(C)c1cc(-c2n[nH]c(=O)n2-c2ccc3c(ccn3C)c2)c(O)cc1O`: the GI50 was under 0.0195 µM and the TGI was determined as 30.6 µM.
The compound `COc1ccc2nc(-c3cccs3)cc(C(O)CN3CCSCC3)c2c1` (centres undefined) returned a TGI of 63.7 µM.
Same read-out and setting: then `N#C/C(=C\c1ccc(O)c(O)c1)C(N)=S`, with 97.7 µM.
Take `OC(c1cc(-c2ccccc2)nc2ccc(Cl)cc12)C1CCCCN1` (centres undefined): the GI50 is 2.23 µM and the TGI is 4.13 µM.

A further experiment relates to CAKI-1 renal. Briefly: NCI tumour cell line growth inhibition, 48 h.
Turning to `CCCC(C)c1cc(Cc2cc(Cl)cc(Cl)c2O)c(O)c(Cc2cc(Cl)cc(Cl)c2O)c1` (centres undefined), the GI50 was 1.23 µM and the TGI came out at 10.4 µM.
On to `COc1ccc(/C=C2\CCCC3=C2N=C2SC(C)=NN2C3c2ccc(OC)c(OC)c2)cc1OC` (centres undefined), for which the GI50 was 4.82 µM and the TGI is over 100 µM.
The like results for `COc1ccc(-c2nn3c(-c4cc(F)c(Cl)cc4Cl)nnc3s2)cc1` were, in that order, 37.9 µM and over 100 µM.
In the case of `O=C(NCCO)Nc1ccc(-c2nc(N3CCOCC3)c3cccn3n2)cc1`, the GI50 was 1.16 µM and the TGI is over 100 µM.
Take `O=C(/C=C/c1ccccc1)c1cc(Br)ccc1O`: the TGI was 31.1 µM.
Consider `Cc1ccc(-c2cn3ccnc3c(-c3ccc(Cl)cc3)n2)cc1`, for which the GI50 is 0.0361 µM and the TGI worked out at 2.84 µM.
`CC1(C)C(=NNC(=O)C[N+](C)(C)C)C(C)(C)C1=NNC(=O)C[N+](C)(C)C` showed a TGI of over 100 µM.
In the case of `CC(C)c1cc(-c2n[nH]c(=O)n2-c2ccc3c(ccn3C)c2)c(O)cc1O`, the GI50 is 0.0479 µM and the TGI was over 71.5 µM.
In turn, `COc1ccc2nc(-c3cccs3)cc(C(O)CN3CCSCC3)c2c1` (centres undefined) showed a TGI of over 100 µM.
The compound `N#C/C(=C\c1ccc(O)c(O)c1)C(N)=S` had a TGI of over 100 µM.
On to `COc1ccc2c(c1)/C(=C\c1c(C)nc3sccn13)C(=O)N2`, for which the GI50 was under 0.0485 µM and the TGI was over 100 µM.
With `CC(=O)OCC1OC(OC2C(CSC3OC(COC(C)=O)C(OC(C)=O)C(OC(C)=O)C3OC(C)=O)OC(OC(C)=O)C(OC(C)=O)C2OC(C)=O)C(OC(C)=O)C(OC(C)=O)C1OC(C)=O` (centres undefined), the TGI was over 100 µM.
Take `OC(c1cc(-c2ccccc2)nc2ccc(Cl)cc12)C1CCCCN1` (centres undefined): the GI50 is 2.1 µM and the TGI worked out at 5.9 µM.
